Measurements reported in ChEMBL document CHEMBL1201862, “PubChem BioAssay data set” (2004).
Activity calls are given as the source filed them.

How the values were obtained:
[1] = target: Adenosylmethionine-8-amino-7-oxononanoate aminotransferase (Mycobacterium tuberculosis, UniProt P9WQ81); assay: Mycobacterium tuberculosis BioA enzyme inhibitor Measured in Biochemical System Using Plate Reader - 2163-02_Inhibitor_Dose_CherryPick_Activity.; type: functional, Mycobacterium tuberculosis UT205
Nonstructural protein 1 = Nonstructural protein 1 (Influenza A virus, UniProt Q194T2); type: functional, Influenza A virus (A/California/07/2009(H1N1))
Chain of Nonstructural protein 1 (Q194T2 whole entry): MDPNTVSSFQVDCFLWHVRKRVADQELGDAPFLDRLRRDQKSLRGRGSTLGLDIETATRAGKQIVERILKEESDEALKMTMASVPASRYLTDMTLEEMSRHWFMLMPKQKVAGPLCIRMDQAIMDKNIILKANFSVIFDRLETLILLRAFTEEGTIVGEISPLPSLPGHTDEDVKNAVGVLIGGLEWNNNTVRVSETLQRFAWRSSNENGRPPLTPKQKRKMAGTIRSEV

[2] = target: Ras and Rab interactor 1/Tyrosine-protein kinase ABL1 (Homo sapiens, UniProt P00519+Q13671); type: functional;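 note: biochemical TR-FRET dose-response test measuring inhibition of binding between Rin1 and Abl proteins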
Chain of Ras and Rab interactor 1/Tyrosine-protein kinase ABL1 (P00519 whole entry): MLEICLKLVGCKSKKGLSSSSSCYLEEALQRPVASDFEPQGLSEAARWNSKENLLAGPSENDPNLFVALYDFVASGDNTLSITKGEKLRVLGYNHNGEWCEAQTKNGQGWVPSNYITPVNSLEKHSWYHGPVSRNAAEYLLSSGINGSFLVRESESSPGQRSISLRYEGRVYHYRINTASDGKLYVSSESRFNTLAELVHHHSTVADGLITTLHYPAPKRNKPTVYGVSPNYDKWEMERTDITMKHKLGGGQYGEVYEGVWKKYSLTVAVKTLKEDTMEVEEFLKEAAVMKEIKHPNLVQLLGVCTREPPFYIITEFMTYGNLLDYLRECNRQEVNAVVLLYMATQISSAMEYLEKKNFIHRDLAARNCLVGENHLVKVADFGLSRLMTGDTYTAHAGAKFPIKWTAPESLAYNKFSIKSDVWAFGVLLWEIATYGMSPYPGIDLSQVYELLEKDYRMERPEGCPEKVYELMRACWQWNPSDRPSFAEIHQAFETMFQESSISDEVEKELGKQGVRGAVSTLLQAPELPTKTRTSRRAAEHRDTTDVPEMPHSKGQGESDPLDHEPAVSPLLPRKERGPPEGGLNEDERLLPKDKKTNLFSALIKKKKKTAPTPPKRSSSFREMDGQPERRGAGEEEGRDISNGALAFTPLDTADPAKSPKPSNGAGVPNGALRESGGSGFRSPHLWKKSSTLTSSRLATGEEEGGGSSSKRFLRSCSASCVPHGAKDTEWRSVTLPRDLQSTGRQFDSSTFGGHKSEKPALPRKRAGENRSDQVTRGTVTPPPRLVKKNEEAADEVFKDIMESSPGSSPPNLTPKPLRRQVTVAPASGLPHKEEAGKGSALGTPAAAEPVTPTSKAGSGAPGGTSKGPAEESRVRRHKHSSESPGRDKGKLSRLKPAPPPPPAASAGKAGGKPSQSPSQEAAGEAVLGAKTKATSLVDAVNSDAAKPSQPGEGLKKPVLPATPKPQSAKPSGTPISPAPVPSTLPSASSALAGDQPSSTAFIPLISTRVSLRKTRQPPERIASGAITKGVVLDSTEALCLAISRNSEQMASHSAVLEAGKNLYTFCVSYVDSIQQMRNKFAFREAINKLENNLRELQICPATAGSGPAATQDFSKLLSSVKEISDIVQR
Chain of Ras and Rab interactor 1/Tyrosine-protein kinase ABL1 (Q13671 whole entry): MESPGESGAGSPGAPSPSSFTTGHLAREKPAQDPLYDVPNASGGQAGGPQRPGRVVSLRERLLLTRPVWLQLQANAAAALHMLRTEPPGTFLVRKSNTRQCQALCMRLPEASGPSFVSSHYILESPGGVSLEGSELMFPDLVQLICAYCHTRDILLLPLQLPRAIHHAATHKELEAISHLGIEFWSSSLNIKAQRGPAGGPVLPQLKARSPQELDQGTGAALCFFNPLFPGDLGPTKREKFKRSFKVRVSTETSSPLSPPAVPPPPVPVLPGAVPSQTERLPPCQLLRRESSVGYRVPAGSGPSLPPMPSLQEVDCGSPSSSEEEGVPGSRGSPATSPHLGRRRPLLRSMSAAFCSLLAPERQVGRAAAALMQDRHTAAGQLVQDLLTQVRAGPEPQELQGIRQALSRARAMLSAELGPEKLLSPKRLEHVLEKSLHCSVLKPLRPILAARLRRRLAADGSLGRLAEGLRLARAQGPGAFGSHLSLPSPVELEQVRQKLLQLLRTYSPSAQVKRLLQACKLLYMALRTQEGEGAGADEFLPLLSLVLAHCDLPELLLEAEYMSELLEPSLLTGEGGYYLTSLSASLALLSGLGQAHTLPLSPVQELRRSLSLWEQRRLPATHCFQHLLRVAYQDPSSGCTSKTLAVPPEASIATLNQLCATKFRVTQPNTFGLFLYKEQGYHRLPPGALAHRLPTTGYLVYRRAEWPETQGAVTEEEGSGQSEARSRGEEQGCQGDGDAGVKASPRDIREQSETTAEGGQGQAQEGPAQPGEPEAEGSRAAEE

[3] = target: T1, Histone-lysine N-methyltransferase NSD2 (Homo sapiens, UniProt O96028); type: biochemical
T1 sequence (O96028 whole entry): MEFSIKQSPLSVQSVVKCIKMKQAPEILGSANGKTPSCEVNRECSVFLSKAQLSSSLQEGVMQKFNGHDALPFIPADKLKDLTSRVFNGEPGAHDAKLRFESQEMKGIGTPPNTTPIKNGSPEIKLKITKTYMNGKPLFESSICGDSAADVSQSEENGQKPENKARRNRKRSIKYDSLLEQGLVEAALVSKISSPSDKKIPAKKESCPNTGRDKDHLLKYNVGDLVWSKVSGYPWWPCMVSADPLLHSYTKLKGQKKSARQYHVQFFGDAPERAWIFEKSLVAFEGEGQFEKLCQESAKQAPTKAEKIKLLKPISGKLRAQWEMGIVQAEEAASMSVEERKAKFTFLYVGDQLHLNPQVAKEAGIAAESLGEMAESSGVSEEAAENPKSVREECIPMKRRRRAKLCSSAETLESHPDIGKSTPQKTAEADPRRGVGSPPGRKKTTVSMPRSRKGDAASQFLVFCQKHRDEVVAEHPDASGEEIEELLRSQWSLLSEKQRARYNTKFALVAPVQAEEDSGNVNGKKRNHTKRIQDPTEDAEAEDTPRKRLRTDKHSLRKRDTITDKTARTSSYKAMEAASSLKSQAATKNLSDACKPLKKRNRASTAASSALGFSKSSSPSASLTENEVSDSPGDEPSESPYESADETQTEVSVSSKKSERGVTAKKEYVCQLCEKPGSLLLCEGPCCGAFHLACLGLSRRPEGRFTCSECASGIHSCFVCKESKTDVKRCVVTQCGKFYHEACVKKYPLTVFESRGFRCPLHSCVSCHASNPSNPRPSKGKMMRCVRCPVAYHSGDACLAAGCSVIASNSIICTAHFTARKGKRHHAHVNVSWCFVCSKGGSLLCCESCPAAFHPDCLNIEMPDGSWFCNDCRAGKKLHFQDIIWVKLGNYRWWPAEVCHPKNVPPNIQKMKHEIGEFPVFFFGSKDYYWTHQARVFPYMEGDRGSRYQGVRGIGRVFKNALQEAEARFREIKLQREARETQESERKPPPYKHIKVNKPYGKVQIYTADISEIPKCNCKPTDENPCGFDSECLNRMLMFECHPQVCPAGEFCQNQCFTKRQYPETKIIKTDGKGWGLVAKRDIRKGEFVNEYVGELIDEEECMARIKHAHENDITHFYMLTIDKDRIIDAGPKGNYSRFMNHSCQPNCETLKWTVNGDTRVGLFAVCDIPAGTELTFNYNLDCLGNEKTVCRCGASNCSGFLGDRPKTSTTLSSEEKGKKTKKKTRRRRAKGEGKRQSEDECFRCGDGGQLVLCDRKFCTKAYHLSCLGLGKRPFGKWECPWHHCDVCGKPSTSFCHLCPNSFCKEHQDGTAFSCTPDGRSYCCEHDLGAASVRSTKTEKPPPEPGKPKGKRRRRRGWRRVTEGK

[4] = target: T2, High affinity choline transporter 1 (Homo sapiens, UniProt Q9GZV3); assay: human choline transporter blockers, potency – cell-based, 5-point CRC, membrane potential dye, dose response (AID 504840); type: functional
T2 sequence (Q9GZV3 whole entry): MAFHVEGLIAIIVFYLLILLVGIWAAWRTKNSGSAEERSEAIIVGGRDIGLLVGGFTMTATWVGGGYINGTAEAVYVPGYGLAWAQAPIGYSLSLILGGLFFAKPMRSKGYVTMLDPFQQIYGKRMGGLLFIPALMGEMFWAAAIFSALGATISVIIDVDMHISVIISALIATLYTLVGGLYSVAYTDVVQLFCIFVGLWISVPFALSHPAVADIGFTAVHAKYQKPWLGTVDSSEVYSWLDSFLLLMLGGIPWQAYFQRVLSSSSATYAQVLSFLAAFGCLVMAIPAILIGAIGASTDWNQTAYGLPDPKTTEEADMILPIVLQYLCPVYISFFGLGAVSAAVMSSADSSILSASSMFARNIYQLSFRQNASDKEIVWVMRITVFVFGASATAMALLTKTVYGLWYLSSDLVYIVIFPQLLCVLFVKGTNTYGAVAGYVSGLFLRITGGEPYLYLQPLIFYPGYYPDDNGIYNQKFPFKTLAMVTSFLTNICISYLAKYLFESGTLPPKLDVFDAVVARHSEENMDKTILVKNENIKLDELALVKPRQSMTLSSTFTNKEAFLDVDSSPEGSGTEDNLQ

[5] = target: T2, High affinity choline transporter 1; assay: human choline transporter blockers, potency – cell-based, 10-point CRC, membrane potential dye, dose response (AID 588401); type: functional;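 note: membrane potential dye fluorescence of choline-evoked depolarization via CHT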
[6] = target: Tyrosine-protein phosphatase non-receptor type 11 (Homo sapiens, UniProt Q06124); assay: PTPN11 enzyme inhibitors – biochemical, selectivity assay for STEP inhibitor project, dose response (AID 602367); type: functional; settings: read-out: IC50_Mean
Chain of Tyrosine-protein phosphatase non-receptor type 11 (Q06124 whole entry): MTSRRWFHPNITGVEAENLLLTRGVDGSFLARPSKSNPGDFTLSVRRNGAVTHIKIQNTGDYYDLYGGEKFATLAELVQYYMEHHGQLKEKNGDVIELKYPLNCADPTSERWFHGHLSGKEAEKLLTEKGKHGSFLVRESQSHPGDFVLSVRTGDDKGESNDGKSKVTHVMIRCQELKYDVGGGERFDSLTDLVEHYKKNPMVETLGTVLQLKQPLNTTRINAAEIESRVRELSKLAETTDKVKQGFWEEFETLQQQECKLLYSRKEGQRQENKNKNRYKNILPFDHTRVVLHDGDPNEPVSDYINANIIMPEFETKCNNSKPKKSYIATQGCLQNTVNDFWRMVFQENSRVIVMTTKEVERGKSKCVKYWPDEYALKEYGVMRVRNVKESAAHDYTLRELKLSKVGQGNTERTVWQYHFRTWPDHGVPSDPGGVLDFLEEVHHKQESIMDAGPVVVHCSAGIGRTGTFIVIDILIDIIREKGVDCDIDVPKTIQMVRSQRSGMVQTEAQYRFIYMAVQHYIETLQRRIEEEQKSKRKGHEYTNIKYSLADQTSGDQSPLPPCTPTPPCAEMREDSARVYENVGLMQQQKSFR

[7] = target: Tyrosine-protein phosphatase non-receptor type 5 (Homo sapiens, UniProt P54829); assay: PTPN5 enzyme inhibition – biochemical, fluorescence intensity, uHTS hits, confirmation (AID 602372); type: functional; settings: read-out: IC50_Mean
Chain of Tyrosine-protein phosphatase non-receptor type 5 (P54829 whole entry): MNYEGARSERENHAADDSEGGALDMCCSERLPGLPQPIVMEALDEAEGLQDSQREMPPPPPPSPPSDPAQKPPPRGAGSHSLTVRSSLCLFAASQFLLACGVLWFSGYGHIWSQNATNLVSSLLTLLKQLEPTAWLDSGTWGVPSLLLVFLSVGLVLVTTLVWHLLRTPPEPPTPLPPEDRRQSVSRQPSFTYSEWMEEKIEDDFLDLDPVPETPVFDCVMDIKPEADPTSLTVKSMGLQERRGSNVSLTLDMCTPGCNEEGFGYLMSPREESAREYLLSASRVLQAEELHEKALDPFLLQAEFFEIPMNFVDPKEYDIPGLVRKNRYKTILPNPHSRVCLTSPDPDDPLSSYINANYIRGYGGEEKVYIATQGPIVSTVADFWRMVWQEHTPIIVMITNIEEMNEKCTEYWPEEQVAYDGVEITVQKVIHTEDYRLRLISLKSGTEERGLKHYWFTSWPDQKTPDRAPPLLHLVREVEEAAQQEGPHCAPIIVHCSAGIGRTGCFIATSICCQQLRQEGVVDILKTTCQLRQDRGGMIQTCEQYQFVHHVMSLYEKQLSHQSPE

[8] = target: Dual specificity protein phosphatase 3 (Homo sapiens, UniProt P51452); assay: VHR phosphatase inhibition, dose response, selectivity assay for STEP inhibitor project, biochemical (AID 602374); type: functional; settings: read-out: IC50_Mean
Chain of Dual specificity protein phosphatase 3 (P51452 whole entry): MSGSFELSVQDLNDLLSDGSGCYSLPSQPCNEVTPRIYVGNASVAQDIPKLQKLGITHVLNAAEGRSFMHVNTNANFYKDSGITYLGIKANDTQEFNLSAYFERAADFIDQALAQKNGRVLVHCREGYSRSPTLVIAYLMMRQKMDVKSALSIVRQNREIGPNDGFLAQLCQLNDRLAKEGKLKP

[9] = target: DNA repair and recombination protein RAD54-like (Homo sapiens, UniProt Q92698); assay: RAD54 Holliday junction migration blockers – biochemical, fluorescence, cherry-picked samples, dose series, confirmation (AID 651657); type: functional
Chain of DNA repair and recombination protein RAD54-like (Q92698 whole entry): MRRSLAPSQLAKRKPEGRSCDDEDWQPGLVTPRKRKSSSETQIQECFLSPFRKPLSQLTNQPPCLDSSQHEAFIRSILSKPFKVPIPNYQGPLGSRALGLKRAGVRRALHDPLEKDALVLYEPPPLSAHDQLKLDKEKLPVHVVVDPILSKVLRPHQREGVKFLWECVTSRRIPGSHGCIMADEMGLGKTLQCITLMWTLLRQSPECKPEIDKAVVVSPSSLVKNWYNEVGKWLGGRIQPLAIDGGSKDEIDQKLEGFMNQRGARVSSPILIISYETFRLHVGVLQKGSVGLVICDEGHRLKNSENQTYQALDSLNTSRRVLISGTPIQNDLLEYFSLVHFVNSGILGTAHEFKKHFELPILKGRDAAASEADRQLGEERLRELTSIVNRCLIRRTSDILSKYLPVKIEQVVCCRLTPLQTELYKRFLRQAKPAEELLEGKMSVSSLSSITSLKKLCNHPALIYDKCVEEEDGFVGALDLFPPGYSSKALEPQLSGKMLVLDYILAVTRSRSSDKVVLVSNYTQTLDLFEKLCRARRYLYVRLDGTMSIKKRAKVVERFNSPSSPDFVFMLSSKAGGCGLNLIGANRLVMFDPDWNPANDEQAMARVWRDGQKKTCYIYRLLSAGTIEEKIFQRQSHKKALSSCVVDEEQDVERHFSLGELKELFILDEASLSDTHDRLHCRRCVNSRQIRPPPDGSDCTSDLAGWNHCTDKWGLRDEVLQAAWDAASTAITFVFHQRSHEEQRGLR

[10] = target: T3, Replicative DNA helicase DnaB (Mycobacterium tuberculosis, UniProt P9WMR3); assay: DnaB intein splicing inhibitors, dose response, biochemical, cell-free fluorescence (AID 449749); type: functional
T3 sequence (P9WMR3 whole entry): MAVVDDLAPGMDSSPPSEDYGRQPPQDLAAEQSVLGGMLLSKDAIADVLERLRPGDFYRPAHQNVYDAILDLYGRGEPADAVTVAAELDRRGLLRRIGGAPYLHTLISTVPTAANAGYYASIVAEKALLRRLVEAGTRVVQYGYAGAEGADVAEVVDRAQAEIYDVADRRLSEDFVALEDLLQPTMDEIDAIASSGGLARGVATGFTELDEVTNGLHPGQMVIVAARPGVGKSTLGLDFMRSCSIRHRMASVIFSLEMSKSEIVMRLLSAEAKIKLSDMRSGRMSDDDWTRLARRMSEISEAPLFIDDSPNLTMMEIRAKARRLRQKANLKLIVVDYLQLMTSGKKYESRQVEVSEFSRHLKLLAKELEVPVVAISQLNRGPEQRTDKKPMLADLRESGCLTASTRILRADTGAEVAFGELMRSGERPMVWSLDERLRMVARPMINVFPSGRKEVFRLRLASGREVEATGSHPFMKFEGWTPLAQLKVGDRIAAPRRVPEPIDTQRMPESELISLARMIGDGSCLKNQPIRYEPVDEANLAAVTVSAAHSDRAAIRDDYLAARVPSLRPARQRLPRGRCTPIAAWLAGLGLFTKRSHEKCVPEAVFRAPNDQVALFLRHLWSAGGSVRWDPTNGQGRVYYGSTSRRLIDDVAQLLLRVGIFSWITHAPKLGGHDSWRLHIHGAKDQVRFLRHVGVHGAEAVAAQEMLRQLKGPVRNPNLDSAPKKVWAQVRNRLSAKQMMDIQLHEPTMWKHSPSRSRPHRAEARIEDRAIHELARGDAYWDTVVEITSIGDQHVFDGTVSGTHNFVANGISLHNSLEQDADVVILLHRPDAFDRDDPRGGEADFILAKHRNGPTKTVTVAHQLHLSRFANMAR

[11] = target: T4, Apoptotic protease-activating factor 1 (Homo sapiens, UniProt O14727); type: functional
T4 sequence (O14727 whole entry): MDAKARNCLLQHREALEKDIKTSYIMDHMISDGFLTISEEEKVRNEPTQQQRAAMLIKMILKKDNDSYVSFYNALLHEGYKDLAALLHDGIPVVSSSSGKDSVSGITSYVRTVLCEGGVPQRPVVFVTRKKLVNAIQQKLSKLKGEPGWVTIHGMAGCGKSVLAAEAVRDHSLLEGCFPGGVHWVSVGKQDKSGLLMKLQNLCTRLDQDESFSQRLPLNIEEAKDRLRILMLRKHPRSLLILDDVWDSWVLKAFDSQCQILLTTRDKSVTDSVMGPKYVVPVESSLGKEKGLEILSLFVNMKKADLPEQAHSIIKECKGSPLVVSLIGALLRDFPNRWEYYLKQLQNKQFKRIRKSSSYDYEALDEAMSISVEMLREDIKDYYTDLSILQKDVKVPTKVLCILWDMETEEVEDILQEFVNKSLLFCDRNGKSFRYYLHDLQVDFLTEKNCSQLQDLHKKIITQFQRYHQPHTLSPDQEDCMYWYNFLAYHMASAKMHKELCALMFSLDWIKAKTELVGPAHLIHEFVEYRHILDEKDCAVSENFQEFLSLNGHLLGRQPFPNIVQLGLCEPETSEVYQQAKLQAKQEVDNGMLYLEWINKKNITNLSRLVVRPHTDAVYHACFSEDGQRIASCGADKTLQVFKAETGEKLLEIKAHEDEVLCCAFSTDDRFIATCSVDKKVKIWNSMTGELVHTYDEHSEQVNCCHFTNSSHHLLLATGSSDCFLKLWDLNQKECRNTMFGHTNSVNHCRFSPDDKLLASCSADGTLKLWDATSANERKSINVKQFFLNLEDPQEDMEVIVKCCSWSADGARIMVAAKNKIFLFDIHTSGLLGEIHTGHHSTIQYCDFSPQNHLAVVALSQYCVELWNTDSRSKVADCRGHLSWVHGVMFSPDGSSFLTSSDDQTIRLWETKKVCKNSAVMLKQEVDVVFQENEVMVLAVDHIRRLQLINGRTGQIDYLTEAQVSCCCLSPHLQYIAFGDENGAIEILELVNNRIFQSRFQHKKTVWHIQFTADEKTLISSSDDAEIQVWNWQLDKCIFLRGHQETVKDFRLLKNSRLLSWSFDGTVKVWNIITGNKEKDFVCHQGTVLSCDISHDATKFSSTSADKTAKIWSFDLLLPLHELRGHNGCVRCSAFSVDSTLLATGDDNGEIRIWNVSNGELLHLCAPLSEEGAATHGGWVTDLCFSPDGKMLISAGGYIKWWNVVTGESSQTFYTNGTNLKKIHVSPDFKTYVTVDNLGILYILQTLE

Protein RecA = target: T5, Protein RecA (Mycobacterium tuberculosis, UniProt P9WHJ3); assay: Fluorescence Cell-Free Homogeneous Dose Retest to Identify Inhibitors of RecA-Intein Splicing Activity. [Related pubchem assays (depositor defined):AID2097, AID2223, AID489010, AID492950]; type: functional
T5 sequence (P9WHJ3 whole entry): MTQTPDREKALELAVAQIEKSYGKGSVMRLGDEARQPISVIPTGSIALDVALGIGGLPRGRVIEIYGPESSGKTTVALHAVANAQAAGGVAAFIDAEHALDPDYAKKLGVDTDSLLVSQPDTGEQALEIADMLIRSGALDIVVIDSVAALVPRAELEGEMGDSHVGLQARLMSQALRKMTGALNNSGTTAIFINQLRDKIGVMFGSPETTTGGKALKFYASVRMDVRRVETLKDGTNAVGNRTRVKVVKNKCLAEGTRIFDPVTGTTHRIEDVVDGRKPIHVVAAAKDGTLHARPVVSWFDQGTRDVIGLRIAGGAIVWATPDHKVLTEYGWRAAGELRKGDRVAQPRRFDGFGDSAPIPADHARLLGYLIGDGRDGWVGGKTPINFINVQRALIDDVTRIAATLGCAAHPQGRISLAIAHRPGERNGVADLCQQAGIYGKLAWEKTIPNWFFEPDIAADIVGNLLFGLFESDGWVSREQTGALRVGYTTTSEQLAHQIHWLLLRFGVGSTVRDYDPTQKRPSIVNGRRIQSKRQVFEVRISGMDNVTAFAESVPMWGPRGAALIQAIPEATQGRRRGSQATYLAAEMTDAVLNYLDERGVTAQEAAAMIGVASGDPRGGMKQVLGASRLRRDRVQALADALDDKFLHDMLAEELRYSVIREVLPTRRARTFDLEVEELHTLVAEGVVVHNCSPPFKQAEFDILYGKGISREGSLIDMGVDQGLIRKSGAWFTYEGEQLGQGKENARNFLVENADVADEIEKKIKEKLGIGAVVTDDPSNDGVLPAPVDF

Chain of Adenosylmethionine-8-amino-7-oxononanoate aminotransferase (P9WQ81 whole entry): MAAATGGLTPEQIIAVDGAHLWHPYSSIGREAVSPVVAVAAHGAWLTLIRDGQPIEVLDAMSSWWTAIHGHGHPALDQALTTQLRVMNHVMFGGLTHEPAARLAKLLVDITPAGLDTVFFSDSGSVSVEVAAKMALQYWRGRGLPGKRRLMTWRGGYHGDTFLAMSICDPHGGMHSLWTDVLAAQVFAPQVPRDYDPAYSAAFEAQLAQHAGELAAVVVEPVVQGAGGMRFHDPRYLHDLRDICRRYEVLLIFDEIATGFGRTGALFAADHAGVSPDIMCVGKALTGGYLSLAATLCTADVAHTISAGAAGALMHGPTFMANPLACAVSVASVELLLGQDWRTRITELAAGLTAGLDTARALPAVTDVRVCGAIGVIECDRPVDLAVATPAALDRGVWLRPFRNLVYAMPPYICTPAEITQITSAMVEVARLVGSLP

Structure (SMILES): CCOC(=O)c1ccc(N2C(=O)c3[nH]nc(C)c3C2c2ccc(OC)c(OC)c2)cc1 (stereo unspecified)
- AC50 [1]: 0.128 µM (active)

Structure (SMILES): Cc1ccc(NC(=O)CCCCCC2NC(=O)NC2C)cc1 (stereo unspecified)
- IC50 (Nonstructural protein 1): 1.06 µM (active)
- IC50 [2]: 0.0145 µM (active)
- AC50 [3]: 0.358 µM (active)

Structure (SMILES): N#Cc1nc(Cc2cccc3ccccc23)oc1NCCCN1CCOCC1
- IC50 [4]: 3.8 µM (active)
- IC50 [5]: 1.58 µM (active)

Structure (SMILES): COc1ccc(NC(=O)c2cc(=O)c3ccccc3o2)cc1Cl
- IC50 [6]: 2.82 µM (active)
- IC50 [7]: > 80 µM (inactive)
- IC50 [8]: 4.6 µM (active)

Structure (SMILES): O=C(Nc1cccnc1)c1cc2nc(C3CC3)cc(C(F)(F)F)n2n1
- AC50 [1]: 0.144 µM (active)

Structure (SMILES): CNc1nc(SC)nc2ccsc12
- IC50 [4]: 0.743 µM (active)
- IC50 [5]: 1.5 µM (active)

Structure (SMILES): CCN1CCN(c2cc(C)c3cc(NC(S)=NCCN(C)C)ccc3n2)CC1
- AC50 [9]: 24.3 µM (active)

Structure (SMILES): COc1ccc(S(=O)(=O)/N=C2\C=C(NS(=O)(=O)c3ccccc3)C(=O)c3ccccc32)cc1
- AC50 [10]: 1.89 µM (active)
- IC50 [11]: 16.6 µM (active)
- EC50 (Protein RecA): 1.58 µM (active)
